Results on six compounds are retold here after ChEMBL document CHEMBL5724914, “Linking interpersonal differences in gut microbiota composition and drug biotransformation activity” (2024).

The structures appear in SMILES notation.

A short description of series [1]: The drug is tested on Z-010 corresponding to metagenome with ENA study accession number: PRJEB37062 and ENA sample accession number: ERS12561810 for biotransformation under anaerobic condition. The drug concentrations were measured over 9 timepoints collected between 0 and 24 hours of incubation by liquid-chromatography-coupled mass spectrometry (LC–MS). Conditions: 2 µM.

Series [2] in a line: The drug is tested on WLS-073 corresponding to human gut metagenome with ENA study accession number: PRJEB37062 and ENA sample accession number: ERS12561749 for biotransformation under anaerobic condition. The drug concentrations were measured over 9 timepoints collected between 0 and 24 hours of incubation by liquid-chromatography-coupled mass spectrometry (LC–MS). Particulars: 2 µM.

Series [3] can be described thus: The drug is tested on Z-024 corresponding to pig gut metagenome with ENA study accession number: PRJEB37062 and ENA sample accession number: ERS12561823 for biotransformation under anaerobic condition. The drug concentrations were measured over 9 timepoints collected between 0 and 24 hours of incubation by liquid-chromatography-coupled mass spectrometry (LC–MS). Conditions: 2 µM.

The nature of series [4]: The drug is tested on WLS-086 corresponding to human gut metagenome with ENA study accession number: PRJEB37062 and ENA sample accession number: ERS12561752 for biotransformation under anaerobic condition. The drug concentrations were measured over 9 timepoints collected between 0 and 24 hours of incubation by liquid-chromatography-coupled mass spectrometry (LC–MS). Conditions: 2 µM.

For series [5] the following is noted: human gut metagenome, 24 h, 2 µM.
The nature of series [6]: The drug is tested on WLS-220 corresponding to human gut metagenome with ENA study accession number: PRJEB37062 and ENA sample accession number: ERS12561769 for biotransformation under anaerobic condition. The drug concentrations were measured over 9 timepoints collected between 0 and 24 hours of incubation by liquid-chromatography-coupled mass spectrometry (LC–MS). Conditions: 2 µM.

A short description of series [7]: The drug is tested on WLS-038 corresponding to human gut metagenome with ENA study accession number: PRJEB37062 and ENA sample accession number: ERS12561745 for biotransformation under anaerobic condition. The drug concentrations were measured over 9 timepoints collected between 0 and 24 hours of incubation by liquid-chromatography-coupled mass spectrometry (LC–MS). Particulars: 2 µM.

Series [8] is described as follows: The drug is tested on Z-001 corresponding to mouse gut metagenome with ENA study accession number: PRJEB37062 and ENA sample accession number: ERS12561801 for biotransformation under anaerobic condition. The drug concentrations were measured over 9 timepoints collected between 0 and 24 hours of incubation by liquid-chromatography-coupled mass spectrometry (LC–MS). Conditions: 2 µM.

For series [9] the following is noted: human gut metagenome, 24 h, 2 µM. This is another data set of the same source.
Series [10] in a line: The drug is tested on WLS-350 corresponding to human gut metagenome with ENA study accession number: PRJEB37062 and ENA sample accession number: ERS12561789 for biotransformation under anaerobic condition. The drug concentrations were measured over 9 timepoints collected between 0 and 24 hours of incubation by liquid-chromatography-coupled mass spectrometry (LC–MS). Particulars: 2 µM.

The conditions of series [11]: human gut metagenome, 24 h, 2 µM. The source holds these as a separate data set.
The conditions of series [12]: human gut metagenome, 24 h, 2 µM. This is another data set of the same source.
Series [13] is described as follows: The drug is tested on Z-017 corresponding to mouse gut metagenome with ENA study accession number: PRJEB37062 and ENA sample accession number: ERS12561816 for biotransformation under anaerobic condition. The drug concentrations were measured over 9 timepoints collected between 0 and 24 hours of incubation by liquid-chromatography-coupled mass spectrometry (LC–MS). Particulars: 2 µM.

For series [14] the following is noted: human gut metagenome, 24 h, 2 µM. This is another data set of the same source.
Series [15] is described as follows: The drug is tested on WLS-052 corresponding to human gut metagenome with ENA study accession number: PRJEB37062 and ENA sample accession number: ERS12561747 for biotransformation under anaerobic condition. The drug concentrations were measured over 9 timepoints collected between 0 and 24 hours of incubation by liquid-chromatography-coupled mass spectrometry (LC–MS). Conditions: 2 µM.

A short description of series [16]: The drug is tested on Z-009 corresponding to pig gut metagenome with ENA study accession number: PRJEB37062 and ENA sample accession number: ERS12561809 for biotransformation under anaerobic condition. The drug concentrations were measured over 9 timepoints collected between 0 and 24 hours of incubation by liquid-chromatography-coupled mass spectrometry (LC–MS). Conditions: 2 µM.

The conditions of series [17]: human gut metagenome, 24 h, 2 µM. The source holds these as a separate data set.
For series [18] the following is noted: human gut metagenome, 24 h, 2 µM. The source holds these as a separate data set.
The conditions of series [19]: human gut metagenome, 24 h, 2 µM. The source holds these as a separate data set.
For series [20] the following is noted: human gut metagenome, 24 h, 2 µM. This is another data set of the same source.
Further: call rule not given here.

`CCCC1O[C@@H]2C[C@H]3[C@@H]4CCC5=CC(=O)C=C[C@]5(C)[C@H]4[C@@H](O)C[C@]3(C)[C@]2(C(=O)CO)O1` (stereo not given in full) [BUDESONIDE]: the “Bacterial Biotransformation” value is “Compound metabolized” in series [1]; “Compound NOT metabolized” in [2]; “Compound metabolized” in [3]; “Compound metabolized” in [4]; “Compound metabolized” in [5]; “Compound metabolized” in [6]. Moreover, the “Bacterial Biotransformation” value was “Compound metabolized” in series [7]; “Compound NOT metabolized” in [8]; “Compound metabolized” in series [9]; “Compound metabolized” in series [10]; “Compound metabolized” in series [11]; “Compound metabolized” in [12]. In addition, the “Bacterial Biotransformation” value in series [13], in [14], in [15], in series [16], in series [17] and in [18] was “Compound metabolized” in each case. Further, the “Bacterial Biotransformation” value is listed as “Compound metabolized” in series [19] and “Compound NOT metabolized” in [20].

Take `CCN(CC)CCOCCOC(=O)C1(c2ccccc2)CCCC1.O=C(O)CC(O)(CC(=O)O)C(=O)O` [CARBETAPENTANE CITRATE]: the “Bacterial Biotransformation” value in series [1] is recorded as “Compound metabolized”; in [2] it was “Compound metabolized”; in [3], “Compound metabolized”; in series [4], “Compound NOT metabolized”; in [5], “Compound metabolized”; in series [6], “Compound metabolized”. The “Bacterial Biotransformation” value in series [7] is on record as “Compound metabolized”; in series [8], “Compound NOT metabolized”; in [9] it was “Compound metabolized”; in series [10], “Compound NOT metabolized”; in series [11] it was “Compound metabolized”; in [12] it was “Compound NOT metabolized”. In addition, the “Bacterial Biotransformation” value is recorded as “Compound NOT metabolized” in series [13]; “Compound metabolized” in series [14]; “Compound metabolized” in [15]; “Compound metabolized” in series [16]; “Compound NOT metabolized” in series [17]; “Compound metabolized” in series [18]. Moreover, the “Bacterial Biotransformation” value in series [19] and in [20] was “Compound metabolized” in each case.

In the case of `O=C(O)COCCN1CCN(C(c2ccccc2)c2ccc(Cl)cc2)CC1` (stereo not given) [CETIRIZINE], the “Bacterial Biotransformation” value in series [1], in series [2], in series [3], in [4], in series [5] and in series [6] was “Compound metabolized” each time. Further, the “Bacterial Biotransformation” value is on record as “Compound metabolized” in [7]; “Compound NOT metabolized” in series [8]; “Compound metabolized” in series [9]; “Compound metabolized” in series [10]; “Compound metabolized” in series [11]; “Compound metabolized” in series [12]. Besides, the “Bacterial Biotransformation” value in [13] is “Compound NOT metabolized”; in series [14], “Compound metabolized”; in series [15], “Compound metabolized”; in series [16], “Compound metabolized”; in [17], “Compound metabolized”; in [18], “Compound metabolized”. Further, the “Bacterial Biotransformation” value in series [19] and in series [20] was “Compound metabolized” throughout.

As for `CN/C(=N/CCSCc1nc[nH]c1C)NC#N` [CIMETIDINE], the “Bacterial Biotransformation” value in series [1] is given as “Compound metabolized”; in series [2], “Compound NOT metabolized”; in [3], “Compound NOT metabolized”; in [4] it was “Compound metabolized”; in [5] it was “Compound NOT metabolized”; in series [6], “Compound metabolized”. Besides, the “Bacterial Biotransformation” value in series [7] is reported as “Compound NOT metabolized”; in series [8] it was “Compound NOT metabolized”; in [9] it was “Compound metabolized”; in series [10], “Compound NOT metabolized”; in series [11], “Compound NOT metabolized”; in series [12], “Compound metabolized”. For the same compound, the “Bacterial Biotransformation” value in [13] is on record as “Compound NOT metabolized”; in series [14], “Compound metabolized”; in series [15], “Compound NOT metabolized”; in series [16], “Compound NOT metabolized”; in series [17], “Compound NOT metabolized”; in series [18], “Compound metabolized”. The figures for the “Bacterial Biotransformation” value in series [19] and in series [20] were “Compound metabolized” and “Compound NOT metabolized”, respectively.

As for `Br.CN(C)CCCC1(c2ccc(F)cc2)OCc2cc(C#N)ccc21` (stereo not given) [CITALOPRAM HYDROBROMIDE], the “Bacterial Biotransformation” value in series [1] is reported as “Compound metabolized”; in series [2], “Compound NOT metabolized”; in series [3] it was “Compound NOT metabolized”; in series [4], “Compound metabolized”; in [5] it was “Compound NOT metabolized”; in series [6], “Compound NOT metabolized”. Further, the “Bacterial Biotransformation” value in series [7] is listed as “Compound NOT metabolized”; in series [8], “Compound NOT metabolized”; in [9], “Compound metabolized”; in series [10] it was “Compound NOT metabolized”; in [11], “Compound NOT metabolized”; in series [12], “Compound metabolized”. Besides, the “Bacterial Biotransformation” value is recorded as “Compound NOT metabolized” in series [13]; “Compound metabolized” in [14]; “Compound NOT metabolized” in series [15]; “Compound metabolized” in series [16]; “Compound NOT metabolized” in series [17]; “Compound metabolized” in [18]. In addition, the “Bacterial Biotransformation” value is “Compound NOT metabolized” in series [19] and “Compound metabolized” in [20].

For the compound `CN(C)CCC=C1c2ccccc2C=Cc2ccccc21` [CYCLOBENZAPRINE], the “Bacterial Biotransformation” value in series [1], in series [2], in series [3], in series [4], in series [5] and in series [6] was “Compound metabolized” each time. Also, the “Bacterial Biotransformation” value is “Compound NOT metabolized” in series [7]; “Compound metabolized” in series [8]; “Compound metabolized” in series [9]; “Compound metabolized” in series [10]; “Compound NOT metabolized” in series [11]; “Compound metabolized” in series [12]. Also, the “Bacterial Biotransformation” value in series [13] is given as “Compound NOT metabolized”; in series [14], “Compound metabolized”; in series [15], “Compound metabolized”; in [16] it was “Compound metabolized”; in series [17] it was “Compound NOT metabolized”; in series [18], “Compound metabolized”. Also, the results for the “Bacterial Biotransformation” value in series [19] and in [20] were “Compound metabolized” and “Compound NOT metabolized”, respectively.
